Results as given in paper PMC4563558, “Discovery of a series of novel phenylpiperazine derivatives as EGFR TK inhibitors” (Scientific Reports, 2015).

Assays:
[1] = molecular target: PDGFR; assay: Kinase selectivity assay (kit), PDGFR; format: biochemical; conditions: read-out: Inhibition of PDGFR IC50
Protocol: (§1) To validate whether the above anti-proliferative effect was produced by interaction of EGFR protein and the synthesized compounds, the synthesized compounds were evaluated for their abilities to inhibit the activity of four protein kinases relevant to cancer: EGFR, VEGFR2, bFGF, PDGFR. […] Additionally, the activity data inferred that the IC50 values of these compounds shared a similar tendency with their relevant IC50 values of anti-proliferative assay. […] Therefore, we could conclude that the synthesized inhibitors can inhibit the function of EGFR and the anti-proliferative effect was produced partly by interaction of EGFR protein and the compounds.
(§2) The EGFR, VEGFR2, bFGF and PDGFR Kinase Assay Kit were purchased from Bio-Swamp. The experiments were performed according to the manufacturer’s instructions.

[2] = molecular target: bFGF; assay: Kinase selectivity assay (kit), bFGF; format: biochemical; conditions: read-out: Inhibition of bFGF IC50
Protocol: as §1, §2

[3] = system: MCF-7; assay: MTT antiproliferation assay, MCF-7; format: cell-based; conditions: Homo sapiens, MCF7, 72 h exposure, read-out: IC50 ± SD, MCF-7
Protocol: (§3) To test the antiproliferative activities of the synthesized compounds (see supplementary Scheme S1 and S2), the target compounds were evaluated in vitro antiproliferation assays against three human cancer cell lines (MCF-7, HeLa and A549) and one human normal lung cell line.
(§4) The in vitro anticancer activities of the prepared compounds against MCF-7, HeLa and A549 cell lines were evaluated as described in the literature[23] with some modifications. Target tumor cells were grown to log phase in DMEM medium supplemented with 10% fetal bovine serum. After reaching a dilution of 1 × 10^5 cells mL^−1 with the medium, 100 μL of the obtained cell suspension was added to each well of 96-well culture plates. Subsequently, incubation was performed at 37 °C in 5% CO2 atmosphere for 48 h before the cytotoxicity assessment. Tested samples at preset concentrations were added to 6 wells with Erlotinib being employed as a positive reference. After 72 h exposure period, 25 μL of PBS containing 2.5 mg mL^−1 of MTT was added to each well. After 4 h, the medium was replaced by 150 μL DMSO to dissolve the purple formazan crystals produced. The absorbance at 570 nm of each well was measured with an ELISA plate reader. The data represented the mean of three independent experiments in triplicate and were expressed as means ± SD. The IC50 value was defined as the concentration at which 50% of the cells could survive.

[4] = system: A549; assay: MTT antiproliferation assay, A549; format: cell-based; conditions: Homo sapiens, 72 h exposure, read-out: IC50 ± SD, A549
Protocol: as §3, §4

[5] = molecular target: T1, EGFR (Homo sapiens, UniProt P00533); assay: Kinase selectivity assay (kit), EGFR; format: biochemical; conditions: read-out: Inhibition of EGFR IC50
T1 construct: purchased Bio-Swamp
T1 sequence (P00533 25-1210): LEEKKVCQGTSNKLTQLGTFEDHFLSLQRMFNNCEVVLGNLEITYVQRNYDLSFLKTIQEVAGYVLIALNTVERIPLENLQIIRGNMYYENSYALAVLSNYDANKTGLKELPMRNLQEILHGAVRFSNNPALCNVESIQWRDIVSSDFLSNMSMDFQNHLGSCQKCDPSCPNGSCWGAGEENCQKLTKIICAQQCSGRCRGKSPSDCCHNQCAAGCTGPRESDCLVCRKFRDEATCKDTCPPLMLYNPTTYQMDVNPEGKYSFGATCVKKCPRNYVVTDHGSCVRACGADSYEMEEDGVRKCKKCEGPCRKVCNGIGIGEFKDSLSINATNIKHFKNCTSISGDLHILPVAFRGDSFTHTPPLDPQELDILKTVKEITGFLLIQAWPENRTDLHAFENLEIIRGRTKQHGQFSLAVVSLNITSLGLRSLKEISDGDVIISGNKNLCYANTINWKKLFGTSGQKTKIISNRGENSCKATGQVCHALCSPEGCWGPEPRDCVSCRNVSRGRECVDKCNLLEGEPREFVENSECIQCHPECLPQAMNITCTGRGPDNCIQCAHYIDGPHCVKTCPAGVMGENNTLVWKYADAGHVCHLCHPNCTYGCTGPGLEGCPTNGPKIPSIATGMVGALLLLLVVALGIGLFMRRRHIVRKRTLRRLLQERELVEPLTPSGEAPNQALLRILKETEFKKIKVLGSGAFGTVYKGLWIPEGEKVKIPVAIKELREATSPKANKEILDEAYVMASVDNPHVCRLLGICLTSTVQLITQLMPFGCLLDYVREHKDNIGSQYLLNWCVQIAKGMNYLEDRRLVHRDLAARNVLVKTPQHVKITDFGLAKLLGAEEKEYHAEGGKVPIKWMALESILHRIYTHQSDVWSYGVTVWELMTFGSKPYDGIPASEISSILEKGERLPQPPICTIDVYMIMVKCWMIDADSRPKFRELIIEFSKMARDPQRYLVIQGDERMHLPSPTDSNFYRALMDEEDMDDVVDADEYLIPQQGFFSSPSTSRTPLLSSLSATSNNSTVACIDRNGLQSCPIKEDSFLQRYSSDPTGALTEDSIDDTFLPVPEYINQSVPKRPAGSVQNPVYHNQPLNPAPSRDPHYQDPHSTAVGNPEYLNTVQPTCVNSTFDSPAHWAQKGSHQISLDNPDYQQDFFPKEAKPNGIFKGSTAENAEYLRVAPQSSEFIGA
Protocol: as §2

[6] = system: HeLa; assay: MTT antiproliferation assay, HeLa; format: cell-based; conditions: Homo sapiens, 72 h exposure, read-out: IC50 ± SD, HeLa
Protocol: as §3, §4

[7] = in vitro; format: cell-based; conditions: mouse
Protocol: The cytotoxic activity in vitro was measured against mouse fibroblast NIH-3T3 cells using the MTT assay. Cells were cultured in a 96-well plate at a density of 5 × 10^5 cells and different concentrations of compounds were respectively added to each well. The incubation was permitted at 37 °C, 5% CO2 atmosphere for 24 h before the cytotoxicity assessments. 20 μL MTT reagent (4 mg/mL) was added per well 4 h before the end of the incubation. Four hours later, the plate was centrifuged at 1200 rcf for 5 min and the supernatants were removed, each well was added with 200 μL DMSO. The absorbance was measured at a wavelength of 490 nm (OD 490 nm) on an ELISA microplate reader. Three replicate wells were used for each concentration and each assay was measured three times, after which the average of IC50 was calculated.

[8] = system: Lung cells; assay: MTT assay, human normal lung cell line; format: cell-based; conditions: read-out: IC50 ± SD, Lung cells
Protocol: as §3, §4

[9] = system: Erythrocytes; assay: Hemolysis test; format: cell-based; conditions: human erythrocytes, 3 h incubation
Protocol: Hemolytic activity was assayed using fresh capillary human blood. Erythrocytes were collected by centrifuging the blood three times in chilled phosphate buffered saline (PBS at 4 °C) at 1000 × g for 10 min. The final pellet was resuspended in PBS to give a 2% w/v solution. Using a microtitre plate, 100 μL of the erythrocyte solution was added to dextran, PLL, stearyl-PLL or stearyl-PLL+LDL (1–1000/μg/mL) in a volume of […]. Samples were then incubated for 3 h and the microtitre plate was centrifuged then at 1000 × g for 10 min and the supernatants (100 μL) transferred into a new microtitre plate. Hemoglobin release was determined spectrophotometrically using a microtitre plate reader (absorbance at 550 nm). Results were expressed as the amount of released hemoglobin induced by the compounds as a percentage of the total. Hemolysis test was tested according to the guide of biological evaluation of medical device (SFDA, China).

[10] = molecular target: T2, VEGFR2 (Homo sapiens, UniProt P35968); assay: Kinase selectivity assay (kit), VEGFR2; format: biochemical; conditions: read-out: Inhibition of VEGFR2 IC50
T2 construct: purchased Bio-Swamp
T2 sequence (P35968 20-1356, species assumed): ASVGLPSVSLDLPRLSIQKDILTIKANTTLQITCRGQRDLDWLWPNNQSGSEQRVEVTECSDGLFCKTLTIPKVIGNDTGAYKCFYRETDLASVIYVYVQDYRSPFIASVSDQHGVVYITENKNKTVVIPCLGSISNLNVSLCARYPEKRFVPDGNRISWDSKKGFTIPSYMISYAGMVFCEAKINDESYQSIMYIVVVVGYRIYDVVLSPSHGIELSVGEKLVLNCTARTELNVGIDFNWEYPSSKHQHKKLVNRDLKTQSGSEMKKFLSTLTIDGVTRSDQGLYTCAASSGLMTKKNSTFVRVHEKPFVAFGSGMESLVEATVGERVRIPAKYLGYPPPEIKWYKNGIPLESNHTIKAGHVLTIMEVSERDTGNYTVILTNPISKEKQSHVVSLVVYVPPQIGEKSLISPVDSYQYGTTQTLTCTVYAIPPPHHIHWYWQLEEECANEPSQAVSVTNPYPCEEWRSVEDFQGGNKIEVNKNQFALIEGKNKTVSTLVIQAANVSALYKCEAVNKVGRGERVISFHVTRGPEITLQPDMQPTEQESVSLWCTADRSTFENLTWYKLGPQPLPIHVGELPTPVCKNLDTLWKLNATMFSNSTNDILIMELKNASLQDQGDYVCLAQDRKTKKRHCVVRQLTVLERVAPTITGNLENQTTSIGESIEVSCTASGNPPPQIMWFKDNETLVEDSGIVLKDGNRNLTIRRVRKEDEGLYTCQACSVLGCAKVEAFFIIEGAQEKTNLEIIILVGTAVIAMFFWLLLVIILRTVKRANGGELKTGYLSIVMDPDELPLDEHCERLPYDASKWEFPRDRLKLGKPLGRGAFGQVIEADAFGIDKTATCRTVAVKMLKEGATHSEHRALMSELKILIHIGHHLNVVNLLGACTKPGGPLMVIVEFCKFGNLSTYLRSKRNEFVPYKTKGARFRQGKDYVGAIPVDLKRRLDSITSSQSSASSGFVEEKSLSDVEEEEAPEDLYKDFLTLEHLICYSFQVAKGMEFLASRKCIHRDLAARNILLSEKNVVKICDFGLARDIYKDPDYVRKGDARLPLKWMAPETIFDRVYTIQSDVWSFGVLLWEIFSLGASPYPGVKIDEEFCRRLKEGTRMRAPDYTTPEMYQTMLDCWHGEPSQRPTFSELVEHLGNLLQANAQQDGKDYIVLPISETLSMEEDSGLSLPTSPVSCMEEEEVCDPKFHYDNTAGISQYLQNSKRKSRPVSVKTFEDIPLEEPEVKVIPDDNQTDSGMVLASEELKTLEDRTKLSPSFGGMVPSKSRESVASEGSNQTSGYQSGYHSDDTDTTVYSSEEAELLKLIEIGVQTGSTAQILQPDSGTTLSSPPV
Protocol: as §1, §2

[11] = Acute oral toxicity, bodyweights; format: in vivo; conditions: mice; for Bodyweights 0 day ± SD: day 0; for Bodyweights 7 days ± SD: day 7
Protocol: Before the acute toxicity experiment, mice were stopped being served food but water was kept for 3 h. The test substances were dissolved in maize germ oil[24]. The preliminary experiment was performed as follows: Four dose levels, 100, 500, 2000, and 5000 mg/kg body weight and three mice for each level were used. We observed the death and evident toxicity in 7 days to determine the general concentration range. Then the administration doses were graded with geometric progression for ease of the calculation of LD50. Mice were randomly divided into groups (10 mice/group). […] The control groups received maize germ oil only. After the administration, food was withheld for 2 h.

[12] = system: MCF-7, HeLa and A549 cell lines; assay: Anticancer activities discussed in text (cell line not specified); format: cell-based, human; conditions: comparison within series and with positive control
Protocol: According to the data presented in Table 1, it could be concluded that the activity of the tested compounds may be correlated to the variation and modifications of structure.
as §4

[13] = system: A549 cells; assay: Tumor volume in nude mice inoculated with A549 cells; format: in vivo; conditions: 20 mg/kg/2 days, day 14
Protocol: To further evaluate the antitumor effect of compound 3p in vivo, we performed an animal study. Mice were inoculated subcutaneously with A549 cells (5.0 × 10^6) on their shoulders. […]. […] […].
Male BALB/c nude mice, 35–40 days old and weighing 18–22 g, were supplied by Shanghai Laboratory Animal Limited Company. The mice were raised in air-conditioned rooms under controlled lighting (12 h lighting/day) and were fed with standard laboratory food and water ad libitum. Before injection into the mice, the lung cancer cells (A549) were harvested by trypsinization and washed three times with cold serum-free medium and then injected in a total volume of 0.1 mL using a 1-mL latex-free syringe (BD) within 30 min of harvest. Mice were inoculated subcutaneously with A549 cells (5.0 × 10^6) on their shoulders. When the tumor had increased to 100 mm^3 , the mice were equally randomized into 4 groups (with 6 mice/group): saline tumor control group; compound 3p 20 mg/kg/2 days group; compound 3p 40 mg/kg/2 days group; […]. The control group received 0.9% normal saline. Tumor size was measured once every 2 days in two per-pendicular dimensions with Vernier calipers and converted to tumor volume (TV) using the formula: (ab^2)/2, where a and b refer to the longer and shorter dimensions, respectively. The body weight of the animals was measured twice a week at the same time as the tumor dimension measurement and the mortality was monitored daily. After the treatments, all mice were killed and weighed simultaneously, and then tumor was segregated and weighed.

SMILES: COc1cc(OC)nc(NC(=O)CN2CCN(c3ccccc3F)CC2)n1 [3c, N-(4,6-Dimethoxypyrimidin-2-yl)-2-(4-(2-fluorophenyl)piperazin-1-yl)acetamide]
- IC50 [1]: 33.8 ± 1.94 µM
- IC50 [2]: 25.4 ± 2.34 µM
- IC50 [3]: 4130 ± 10 nM
- IC50 [4]: 550 ± 20 nM
- IC50 [5]: 1350 ± 6 nM
- IC50 [6]: 2.69 ± 0.1 µM
- IC50 at 24 h [7]: 230 ± 3.15 µM
- IC50 [8]: 178 ± 2.02 µM
- Hemolysis LC30 (lytic concentration 30%) [9]: >10 mg/mL
- IC50 [10]: 8.94 ± 0.73 µM
- Bodyweights 0 day ± SD [11]: 21.09 ± 1.16 g
- Bodyweights 7 days ± SD [11]: 26.09 ± 0.93 g

SMILES: COc1cc(OC)nc(NC(=O)CN2CCN(c3ccccc3)CC2)n1 [3d, N-(4,6-Dimethoxypyrimidin-2-yl)-2-(4-phenylpiperazin-1-yl)acetamide]
- IC50 [1]: 8.5 ± 0.09 µM
- IC50 [2]: 18.5 ± 2.11 µM
- IC50 [3]: 9870 ± 1000 nM
- IC50 [4]: 2170 ± 20 nM
- IC50 [5]: 5110 ± 30 nM
- IC50 [6]: 10.2 ± 0.28 µM
- Anticancer / antitumor activity (in words) [12]: worst anticancer activity
- IC50 at 24 h [7]: 150 ± 2.56 µM
- IC50 [8]: 136 ± 3.15 µM
- Hemolysis LC30 (lytic concentration 30%) [9]: >10 mg/mL
- IC50 [10]: 10.1 ± 1.08 µM
- Bodyweights 0 day ± SD [11]: 21.18 ± 2.15 g
- Bodyweights 7 days ± SD [11]: 25.57 ± 1.56 g

SMILES: COc1cc(OC)nc(NC(=O)CN2CCN(c3ccccc3OC)CC2)n1 [3e, N-(4,6-Dimethoxypyrimidin-2-yl)-2-(4-(2-methoxyphenyl)piperazin-1-yl)acetamide]
- IC50 [1]: 10 ± 1.17 µM
- IC50 [2]: 11.5 ± 0.89 µM
- IC50 [3]: 2570 ± 20 nM
- IC50 [4]: 1970 ± 1 nM
- IC50 [5]: 1010 ± 4 nM
- IC50 [6]: 1.55 ± 0.006 µM
- Anticancer / antitumor activity (in words) [12]: better anticancer activities compared to the positive control
- IC50 at 24 h [7]: 173 ± 5.31 µM
- IC50 [8]: 189.3 ± 1.78 µM
- Hemolysis LC30 (lytic concentration 30%) [9]: >10 mg/mL
- IC50 [10]: 5.33 ± 0.05 µM
- Bodyweights 0 day ± SD [11]: 21.11 ± 1.34 g
- Bodyweights 7 days ± SD [11]: 25.34 ± 1.15 g

SMILES: COc1cc(OC)nc(NC(=O)CN2CCN(c3ccc([N+](=O)[O-])cc3)CC2)n1 [3f, N-(4,6-Dimethoxypyrimidin-2-yl)-2-(4-(4-nitrophenyl)piperazin-1-yl)acetamide]
- IC50 [1]: 24.5 ± 2.56 µM
- IC50 [2]: 21.5 ± 0.69 µM
- IC50 [3]: 2090 ± 10 nM
- IC50 [4]: 80 ± 3 nM
- IC50 [5]: 2120 ± 80 nM
- IC50 [6]: 4.99 ± 0.07 µM
- IC50 at 24 h [7]: 155 ± 3.05 µM
- IC50 [8]: 202 ± 4.05 µM
- Hemolysis LC30 (lytic concentration 30%) [9]: >10 mg/mL
- IC50 [10]: 7.67 ± 0.07 µM
- Bodyweights 0 day ± SD [11]: 20.57 ± 1.43 g
- Bodyweights 7 days ± SD [11]: 27.25 ± 1.50 g

SMILES: COc1ccc(N2CCN(CC(=O)Nc3nc(OC)cc(OC)n3)CC2)cc1 [3i, N-(4,6-Dimethoxypyrimidin-2-yl)-2-(4-(4-methoxyphenyl)piperazin-1-yl)acetamide]
- IC50 [1]: 31.8 ± 3.12 µM
- IC50 [2]: 22.35 ± 0.1 µM
- IC50 [3]: 2980 ± 90 nM
- IC50 [4]: 2220 ± 50 nM
- IC50 [5]: 910 ± 6 nM
- IC50 [6]: 0.9 ± 0.07 µM
- Anticancer / antitumor activity (in words) [12]: better anticancer activities compared to the positive control
- IC50 at 24 h [7]: 198.5 ± 1.13 µM
- IC50 [8]: 197.5 ± 1.74 µM
- Hemolysis LC30 (lytic concentration 30%) [9]: >10 mg/mL
- IC50 [10]: 3.99 ± 0.08 µM
- Bodyweights 0 day ± SD [11]: 21.33 ± 0.67 g
- Bodyweights 7 days ± SD [11]: 25.83 ± 1.30 g

SMILES: COc1cc(OC)nc(NC(=O)CN2CCN(c3ccccn3)CC2)n1 [3m, N-(4,6-Dimethoxypyrimidin-2-yl)-2-(4-(pyridin-2-yl)piperazin-1-yl)acetamide]
- IC50 [1]: 50 ± 4.76 µM
- IC50 [2]: 3.8 ± 0.036 µM
- IC50 [3]: 2870 ± 4 nM
- IC50 [4]: 1550 ± 4 nM
- IC50 [5]: 2550 ± 670 nM
- IC50 [6]: 5.11 ± 0.006 µM
- IC50 at 24 h [7]: 182 ± 3.22 µM
- IC50 [8]: 165.8 ± 0.59 µM
- Hemolysis LC30 (lytic concentration 30%) [9]: >10 mg/mL
- IC50 [10]: 7.23 ± 0.78 µM
- Bodyweights 0 day ± SD [11]: 22.43 ± 1.02 g
- Bodyweights 7 days ± SD [11]: 22.09 ± 1.02 g

SMILES: COc1cc(OC)nc(NC(=O)CN2CCN(c3cccc(C(F)(F)F)c3)CC2)n1 [3r, N-(4,6-Dimethoxypyrimidin-2-yl)-2-(4-(3-(trifluoromethyl)phenyl)piperazin-1-yl)acetamide]
- IC50 [1]: 3.87 ± 0.92 µM
- IC50 [2]: 33.9 ± 3.59 µM
- IC50 [3]: 4970 ± 10 nM
- IC50 [4]: 330 ± 70 nM
- IC50 [5]: 1960 ± 6 nM
- IC50 [6]: 4.02 ± 0.01 µM
- IC50 at 24 h [7]: 185 ± 2.16 µM
- IC50 [8]: 150 ± 3.03 µM
- Hemolysis LC30 (lytic concentration 30%) [9]: >10 mg/mL
- IC50 [10]: 6.95 ± 0.68 µM
- Bodyweights 0 day ± SD [11]: 21.00 ± 1.01 g
- Bodyweights 7 days ± SD [11]: 25.07 ± 1.21 g

SMILES: N.N.[Cl][Pt][Cl] [DDCP, reference compound]
- Hemolysis LC30 (lytic concentration 30%) [9]: >10 mg/mL

SMILES: C#Cc1cccc(Nc2ncnc3cc(OCCOC)c(OCCOC)cc23)c1 [Erlotinib, reference compound]
- IC50 [3]: 150 ± 30 nM
- IC50 [4]: 100 ± 0.4 nM
- IC50 [6]: 0.11 ± 0.01 µM
- Reduction of the growth of tumors [13]: 49.09%
- IC50 [8]: 195.2 ± 1.27 µM
